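These data come from cells grown in 96-well plates and exposed to compound for 48 hours at five concentrations. At the GI50, growth is halved.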 Calls of active or inactive are those of the source. Cut-off read from the data, not from the text of the source: active = GI50 up to about 1.1 µM and inactive = higher.
Key:
Experiment in all cases: NCI tumour cell line growth inhibition, 48 h
786-0 = system: 786-0
A549 = system: A549
ACHN = system: ACHN
BT-549 = system: BT-549
CAKI-1 = system: CAKI-1
CCRF-CEM = system: CCRF-CEM
COLO 205 = system: COLO 205
DU-145 = system: DU-145
EKVX = system: EKVX
HCC 2998 = system: HCC 2998
HCT-116 = system: HCT-116
HCT-15 = system: HCT-15
HOP-62 = system: HOP-62
HT-29 = system: HT-29
Hs-578T = system: Hs-578T
IGROV-1 = system: IGROV-1
K562 = system: K562
KM12 = system: KM12
M14 = system: M14
MCF7 = system: MCF7
MDA-MB-231 = system: MDA-MB-231
MDA-MB-435 = system: MDA-MB-435
MDA-N = system: MDA-N
MOLT-4 = system: MOLT-4
Malme-3M = system: Malme-3M
NCI-H226 = system: NCI-H226
NCI-H23 = system: NCI-H23
NCI-H522 = system: NCI-H522
NCI/ADR-RES = system: NCI/ADR-RES
OVCAR-3 = system: OVCAR-3
OVCAR-4 = system: OVCAR-4
OVCAR-5 = system: OVCAR-5
OVCAR-8 = system: OVCAR-8
PC-3 = system: PC-3
RPMI-8226 = system: RPMI-8226
RXF 393 = system: RXF 393
SF-268 = system: SF-268
SF-295 = system: SF-295
SK-MEL-28 = system: SK-MEL-28
SK-MEL-2 = system: SK-MEL-2
SK-MEL-5 = system: SK-MEL-5
SK-OV-3 = system: SK-OV-3
SNB-19 = system: SNB-19
SR = system: SR
SW-620 = system: SW-620
T47D = system: T47D
TK-10 = system: TK-10
U-251 = system: U-251
UACC-257 = system: UACC-257
UACC-62 = system: UACC-62
UO-31 = system: UO-31
A498 = system: A498
HL-60 = system: HL-60
LOX IMVI = system: LOX IMVI
NCI-H460 = system: NCI-H460
SF-539 = system: SF-539
SN12C = system: SN12C
SNB-75 = system: SNB-75
HOP-92 = system: HOP-92

Measured: GI50

CN1CCCN(C)CCCN(C)CCCN(C)CCC1
> 100 µM: HCT-15
inactive: 786-0 > 100 µM | A549 > 100 µM | ACHN > 100 µM | BT-549 > 100 µM | CAKI-1 > 100 µM | CCRF-CEM > 100 µM | COLO 205 > 100 µM | DU-145 > 100 µM | EKVX > 100 µM | HCC 2998 > 100 µM | HCT-116 > 100 µM | HOP-62 > 100 µM | HT-29 > 100 µM | Hs-578T > 100 µM | IGROV-1 > 100 µM | K562 > 100 µM | KM12 > 100 µM | M14 > 100 µM | MCF7 > 100 µM | MDA-MB-231 > 100 µM | MDA-MB-435 > 100 µM | MDA-N > 100 µM | MOLT-4 > 100 µM | Malme-3M > 100 µM | NCI-H226 > 100 µM | NCI-H23 > 100 µM | NCI-H522 > 100 µM | NCI/ADR-RES > 100 µM | OVCAR-3 > 100 µM | OVCAR-4 > 100 µM | OVCAR-5 > 100 µM | OVCAR-8 > 100 µM | PC-3 > 100 µM | RPMI-8226 > 100 µM | RXF 393 > 100 µM | SF-268 > 100 µM | SF-295 > 100 µM | SK-MEL-28 > 100 µM | SK-MEL-2 > 100 µM | SK-MEL-5 > 100 µM | SK-OV-3 > 100 µM | SNB-19 > 100 µM | SR > 100 µM | SW-620 > 100 µM | T47D > 100 µM | TK-10 > 100 µM | U-251 > 100 µM | UACC-257 > 100 µM | UACC-62 > 100 µM | UO-31 > 100 µM

Cc1ccnc(NC(=S)Nc2ccccc2Cl)c1
> 100 µM: HCT-15
active: NCI-H522 0.131 µM
inactive: 786-0 > 100 µM | A498 > 100 µM | A549 > 100 µM | BT-549 > 100 µM | CAKI-1 > 100 µM | CCRF-CEM > 100 µM | COLO 205 > 100 µM | DU-145 > 100 µM | EKVX 40.1 µM | HCT-116 > 100 µM | HL-60 > 100 µM | HOP-62 34.7 µM | HT-29 > 100 µM | Hs-578T 44.7 µM | IGROV-1 61.2 µM | K562 > 100 µM | KM12 > 100 µM | LOX IMVI > 100 µM | M14 > 100 µM | MCF7 > 100 µM | MDA-MB-231 2.23 µM | MDA-MB-435 > 100 µM | MDA-N > 100 µM | MOLT-4 > 100 µM | Malme-3M 53.5 µM | NCI-H226 63.5 µM | NCI-H460 > 100 µM | NCI/ADR-RES > 100 µM | OVCAR-3 > 100 µM | OVCAR-4 > 100 µM | OVCAR-5 > 100 µM | OVCAR-8 77.8 µM | PC-3 > 100 µM | RPMI-8226 > 100 µM | RXF 393 > 100 µM | SF-268 33.6 µM | SF-295 87.7 µM | SF-539 > 100 µM | SK-MEL-28 > 100 µM | SK-MEL-2 > 100 µM | SK-MEL-5 > 100 µM | SK-OV-3 83.8 µM | SN12C > 100 µM | SNB-19 > 100 µM | SNB-75 13 µM | SR > 100 µM | SW-620 > 100 µM | T47D > 100 µM | TK-10 > 100 µM | U-251 > 100 µM | UACC-257 > 100 µM | UACC-62 63.1 µM | UO-31 > 100 µM

Cn1c(NNc2ccccc2)cc(=O)[nH]c1=O
16.3 µM: HCT-15
inactive: 786-0 20.5 µM | A549 37.7 µM | ACHN 4.25 µM | BT-549 > 100 µM | CAKI-1 29.9 µM | CCRF-CEM 20.6 µM | COLO 205 36.9 µM | DU-145 > 100 µM | EKVX > 100 µM | HCC 2998 27.3 µM | HCT-116 42.5 µM | HL-60 32.7 µM | HOP-62 > 100 µM | HOP-92 63.8 µM | HT-29 86.9 µM | Hs-578T > 100 µM | IGROV-1 48.2 µM | K562 36.7 µM | KM12 15.2 µM | LOX IMVI 20 µM | M14 33.9 µM | MCF7 33.8 µM | MDA-MB-231 28.9 µM | MDA-MB-435 20.9 µM | MDA-N 20.5 µM | MOLT-4 39.3 µM | Malme-3M 57.8 µM | NCI-H226 > 100 µM | NCI-H23 > 100 µM | NCI-H460 51.9 µM | NCI-H522 19.1 µM | NCI/ADR-RES 35.8 µM | OVCAR-3 23.2 µM | OVCAR-4 55.8 µM | OVCAR-5 > 100 µM | OVCAR-8 29.8 µM | PC-3 38.6 µM | RPMI-8226 35.3 µM | RXF 393 61.8 µM | SF-268 34.1 µM | SF-295 21.8 µM | SF-539 29.3 µM | SK-MEL-28 37.8 µM | SK-MEL-2 3.63 µM | SK-MEL-5 25.6 µM | SK-OV-3 72.6 µM | SN12C > 100 µM | SNB-19 > 100 µM | SNB-75 81.7 µM | SR 22.6 µM | SW-620 62.1 µM | T47D 30.9 µM | TK-10 > 100 µM | U-251 53.5 µM | UACC-257 95.7 µM | UACC-62 36.1 µM | UO-31 28.2 µM

CCOP(=O)(OCC)C(C)(CC)N/C(N)=N/C#N (stereo not drawn)
> 100 µM: HCT-15
inactive: 786-0 > 100 µM | A549 > 100 µM | ACHN > 100 µM | BT-549 > 100 µM | CCRF-CEM > 100 µM | COLO 205 > 100 µM | DU-145 > 100 µM | EKVX > 100 µM | HCC 2998 > 100 µM | HCT-116 > 100 µM | HL-60 > 100 µM | HOP-62 > 100 µM | HT-29 > 100 µM | Hs-578T > 100 µM | IGROV-1 > 100 µM | K562 > 100 µM | KM12 > 100 µM | LOX IMVI > 100 µM | M14 > 100 µM | MCF7 > 100 µM | MDA-MB-231 > 100 µM | MDA-MB-435 > 100 µM | MDA-N > 100 µM | MOLT-4 > 100 µM | Malme-3M > 100 µM | NCI-H226 > 100 µM | NCI-H23 > 100 µM | NCI-H460 > 100 µM | NCI/ADR-RES > 100 µM | OVCAR-3 > 100 µM | OVCAR-4 > 100 µM | OVCAR-5 > 100 µM | OVCAR-8 > 100 µM | PC-3 > 100 µM | RPMI-8226 > 100 µM | RXF 393 > 100 µM | SF-268 > 100 µM | SF-295 > 100 µM | SF-539 > 100 µM | SK-MEL-28 > 100 µM | SK-MEL-2 > 100 µM | SK-MEL-5 > 100 µM | SK-OV-3 > 100 µM | SN12C > 100 µM | SNB-19 > 100 µM | SNB-75 > 100 µM | SR > 100 µM | SW-620 > 100 µM | T47D > 100 µM | TK-10 > 100 µM | U-251 > 100 µM | UACC-257 > 100 µM | UACC-62 > 100 µM | UO-31 > 100 µM

CCOC(=O)c1c(-c2ccc(OC)cc2)c(C#N)c(=S)n(C2OC(CO)C(O)C(O)C2O)c1-c1ccccc1 (stereo not drawn)
56 µM: HCT-15
inactive: 786-0 48.2 µM | A549 > 100 µM | ACHN 54.7 µM | BT-549 37.4 µM | CAKI-1 50.7 µM | CCRF-CEM 31.2 µM | COLO 205 49.3 µM | DU-145 48.4 µM | HCC 2998 39.6 µM | HCT-116 27.2 µM | HL-60 40.8 µM | HOP-62 25.4 µM | HOP-92 6.85 µM | HT-29 40.6 µM | Hs-578T 25.2 µM | IGROV-1 59.6 µM | K562 34.4 µM | KM12 51.2 µM | LOX IMVI 41.9 µM | M14 31.9 µM | MCF7 39.4 µM | MDA-MB-231 36 µM | MDA-MB-435 30.8 µM | MDA-N 33.2 µM | MOLT-4 30.7 µM | Malme-3M 73.5 µM | NCI-H23 31.8 µM | NCI-H460 42.7 µM | NCI/ADR-RES > 100 µM | OVCAR-3 24.6 µM | OVCAR-4 34.3 µM | OVCAR-5 > 100 µM | PC-3 35.6 µM | RPMI-8226 46.9 µM | RXF 393 26.2 µM | SF-268 68.7 µM | SF-295 44.9 µM | SF-539 38.1 µM | SK-MEL-28 50.4 µM | SK-MEL-2 31.3 µM | SK-MEL-5 13.3 µM | SK-OV-3 90.6 µM | SN12C 42.7 µM | SNB-19 85.1 µM | SNB-75 78.7 µM | SR 54.7 µM | SW-620 36.1 µM | T47D 52.2 µM | TK-10 55.6 µM | U-251 47.1 µM | UACC-257 > 100 µM | UACC-62 28.2 µM | UO-31 51.5 µM
